# Data reported in article PMC6749294, “Comparison of the Utility of RP-TLC Technique and Different Computational Methods to Assess the Lipophilicity of Selected Antiparasitic, Antihypertensive, and Anti-inflammatory Drugs” (Molecules, 2019).
# Like-named read-outs stand apart in the source and are kept apart here.
# Assays:
# [1] = Experimental n-octanol-water partition coefficient (logPexp) from literature and databases; assay type: physicochemical; conditions: average of the differing literature logPexp values (± spread)
# Excerpt: The next stage of this paper was a comparison of all obtained RMWS and RMWO parameters calculated using […] equations with theoretical and experimental logP values obtained in an n-octanol-water system.
# [2] = cited from earlier work; for Rm0: RP-18F254 plates, acetonitrile-water; for logP: calculated from regression curve Rm0 = f(logP)
# [3] = n-octanol-water, cited from earlier work
# [4] = RP-TLC lipophilicity on RP-18F254 plates (Soczewiński-Wachtmeister's and Ościk's equations); assay type: physicochemical; conditions: for RMWO(m) / RMWO(a): Ościk's equation; for RMWO(m) / RMWS(m) / φ0(m): methanol-water mobile phase; for RMWO(m) / RMWS(a) / RMWS(m) / RMWO(a): silica gel RP-18F254; for RMWS(a) / RMWS(m): Soczewiński-Wachtmeister's equation; for RMWS(a) / φ0(a) / RMWO(a): acetone-water mobile phase; for φ0(a) / φ0(m): φ0 = RMWS/S (Equation 6)
# Protocol: The chromatographic analysis was carried on RP-18F254 plates (Art.1.05559, E. Merck, Darmstadt, Germany). The solutions of the investigated compounds were spotted separately onto chromatographic plates using precise micropipettes in a quantity of 5 µL each.
# The chromatograms were developed using the mixtures of methanol-water and acetone-water in different volume compositions, as follows:
# For antiparasitic drugs: • - the content of methanol was gradually varied by 10% (v/v) from 20–100 (%, v/v), • - the content of acetone was gradually varied by 10% (v/v) from 10–100 (%, v/v).
# In the case of antihypertensive drugs, the content of methanol and acetone was gradually varied by 5% (v/v) from 60–100 (%, v/v).
# For non-steroidal anti-inflammatory drugs: • - the content of methanol was gradually varied by 5% (v/v) from 60–100 (%, v/v), • - the content of acetone was gradually varied by10% (v/v) from 20–100 (%, v/v).
# Next, the chamber was saturated with solvent vapor for 20 min. The chromatograms were developed at room temperature, e.g., 22 ± 1 °C. The development distance was 75 mm. The plates were dried at room temperature, e.g., 22 ± 1 °C. Each chromatogram was done in triplicate.
# Densitometric scanning was done using a TLC Scanner 3 with WinCATS 1.4.2 software manufactured by Camag (Muttenz, Switzerland) in the reflectance/absorbance mode.
# Densitometric scanning was performed at a respective absorption maximum for the analyzed drugs. The slit dimensions were 10.00 × 0.40 mm, Macro; the optimized optical system was light; the scanning speed was 20 mm/s; the data resolution was 100 μm/step; the measurement type was remission; the measurement mode was absorption; and the optical filter was second order. Each track was scanned three times, and a baseline correction (lowest slope) was used.
# In order to determine the lipophilicity parameter based on Soczewiński-Wachtmeister′s procedure, the RF values obtained under the applied chromatographic conditions were converted into RM values according to the expression:(4) RM=log1/RF−1 The linear relationship between RM and the volume content of methanol and acetone in the mobile phase (φ) permits an extrapolation of the calculated RM values to the zero concentration of methanol and acetone in accordance with Soczewiński-Wachtmeister′s Equation (5). […] (5) RM=RMWS−Sφ where: RM is the RM value of the studied compound, RMWS is the RM value extrapolated to zero concentration of methanol and acetone (organic modifier) in the used mobile phase, i.e., methanol-water and acetone-water, respectively, S is the slope of the regression plot (see Supplementary Materials), and φ is the volume fraction of methanol and acetone in the mobile phase. In addition to this, on the basis of the said plot, i.e., Soczewiński-Wachtmeister′s equation, another chromatographic descriptor (φ0) has been calculated according to the following formula (Equation (6)): (6) φ0 = RMWS/S where: RMWS is the chromatographic parameter obtained by using Soczewiński-Wachtmeister’s equation in accordance with Equation (5), and S is the regression slope.
# The measurable lipophilicity value expressed as RMWO was determined according to Ościk’s equation [29, 30, 32]:(7) Gxorg=xorg1−xorg/RM−xorgRMorg−1−xorgRMWO=axorg+b where: RM, RMorg, and RMWO are the solute retention factors in the mixed mobile phase, pure organic solvent, and water, respectively; xorg is the molar fraction of the organic solvent in the mobile phase; a and b are constants in the linear correlation between G(xorg) and xorg in the used mobile phase.
# [5] = design: method as in PMID 12972078; conditions: RP-HPLC, cited from earlier work; for log kwODS: ODS column μBondapak C18; for log kw IAM: immobilized artificial membrane (IAM.PC.MG) column
# [6] = Prediction of logPexp from φ0(a) with Equation (3); assay type: physicochemical; conditions: chromatography with acetone-water mobile phase; calculated from φ0(a) with Equation (3); read-out: predicted logPexp
# Excerpt: The continuation of our lipophilicity study of fifteen biocompounds belonging to the three groups of drugs and the determination of another lipophilicity descriptor, namely φ0, in accordance with Equation (6), allowed us to obtain the two new lipophilicity parameters φ0(a) and φ0(m) for a proper used mobile phase, i.e., acetone-water (a) and methanol-water (m), respectively. What is important is that the calculation of this parameter was possible because a satisfactory linear relationship between both, i.e., the intercept and slope (RMWS and S), in each obtained Soczewiński-Wachtmeister’s equation was achieved (r > 0.98). In order to estimate the utility of these parameters for the prediction of the theoretical as well as experimental parameter of the lipophilicity of a large group of investigated compounds, a correlation matrix between all previously described (thus chromatographic) parameters, as well as the computed and experimental partition coefficient, was done. The results of the correlation analysis indicate that among all φ0 values the best is the one obtained for acetone-water, which is to say φ0(a). […]
# This fact confirms the potential utility of the additionally calculated chromatographic parameter φ0(a) to determine the partition coefficient of all examined compounds. It can be very useful in the case of the lack of this value, like for example for the experimental logP of nilvadipine, lacidipine and carprofen. A test was performed on Equation (3) to determine the values of logPexp for the three abovementioned compounds. The results of the predicted logPexp were: 3.65 for nilvadipine, 3.96 for lacidipine and 3.54 for carprofen, respectively. It can be observed that the newly obtained logPexp values are in good agreement with the other previously described theoretical logP of these compounds. They are placed in the similar range of logP values.
# [7] = design: method as in PMID 9809446; conditions: methanol-water, cited from earlier work
# [8] = cited from earlier work
# [9] = design: method as in doi:10.1016/S0021-9673(01)88013-4; conditions: RP-HPLC; cited from earlier work
# [10] = cited from earlier work; remark: listed apart in the source
# [11] = RP-18WF254 plates, Soczewiński-Wachtmeister's equation
logP [1],RMWO(m) [4],RMWS(a) [4],RMWS(m) [4],φ0(a) [4],φ0(m) [4],RMWO(a) [4],Compound,also measured
0.41,1.92,1.22,1.46,0.565,0.676,1.42,"Cc1ncc([N+](=O)[O-])n1CC(O)CCl (stereo not shown) [Ornidazole, ornidazole]",
,5.57,4.07,3.66,0.764,0.886,6.28,"COC(=O)C1=C(C#N)NC(C)=C(C(=O)OC(C)C)C1c1cccc([N+](=O)[O-])c1 (stereo not shown) [Nilvadipine, nilvadipine]",chromatographic logP [6]: 3.65
,1.72,0.95,1.26,,,1.21,"Cc1ncc([N+](=O)[O-])n1CC(C)O (stereo not shown) [Secnidazole, secnidazole]",logPexp ([3]; ref 33): 0.22 [33]
,2.52,3.08,3.12,0.787,0.903,,"COc1ccc2cc(CCC(C)=O)ccc2c1 [Nabumetone, nabumetone]",logPexp ([3]; ref 43): 3.08 [43]
0.18,1.69,0.89,1.17,0.463,0.612,1.11,"CCS(=O)(=O)CCn1c([N+](=O)[O-])cnc1C [Tinidazole, tinidazole]",
0.1,1.21,0.65,0.91,0.398,0.564,0.94,"Cc1ncc([N+](=O)[O-])n1CCO [Metronidazole, metronidazole]","hydrophilic-hydrophobic properties ([8]; according to Hoffmann et al. and Jokipii et al.): lipophilic compound that penetrates well into most tissues; hydrophilic-hydrophobic properties ([8]; reported by Biagi): hydrophilic; hydrophilic-hydrophobic properties ([8]; reported by Másson et al.): very hydrophilic; logPexp ([3]; ref 34): –0.22; logPexp ([3]; ref 35): –0.10; logPexp ([3]; ref 36): –0.02 [36]; logPexp ([3]; ref 37): 0.75 [37]; logk' [9]: –0.067; RMW ([10]; RP-TLC, Soczewiński-Wachtmeister's equation): 0.08; RMW(paraffin) ([10]; stationary phase liquid paraffin): 0.60; RMW(squalene) ([10]; stationary phase squalene): 0.53"

# The next lines start with the compound.
Compound,logP [1],RMWO(m) [4],RMWS(a) [4],RMWS(m) [4],φ0(a) [4],φ0(m) [4],RMWO(a) [4],also measured
"CC(C(=O)O)c1ccc(-c2ccccc2)c(F)c1 (stereo not shown) [Flurbiprofen, flurbiprofen]",4,2.26,1.87,1.98,0.930,0.771,,Rm0 [2]: 2.5076; logP [2]: 3.82; logPexp ([3]; ref 36): 4.16 [36]; logPexp ([3]; ref 42): 3.84 [42]; log kwODS [5]: 2.91; log kw IAM [5]: 1.58
"COC(=O)C1=C(C)NC(C)=C(C(=O)OC(C)C)C1c1cccc2nonc12 (stereo not shown) [Isradipine, isradipine]",,5.08,3.54,3.13,0.751,0.837,5.67,logPexp ([3]; ref 6): 4.28 [6]
"CC(C(=O)O)c1ccc2c(c1)[nH]c1ccc(Cl)cc12 (stereo not shown) [Carprofen, carprofen]",,2.77,2.56,2.34,0.754,0.820,,log kwODS [5]: 3.85; log kw IAM [5]: 1.81; chromatographic logP [6]: 3.54
"CCOC(=O)C1=C(C)NC(C)=C(C(=O)OCC)C1c1ccccc1/C=C/C(=O)OC(C)(C)C [Lacidipine, lacidipine]",,6.89,4.51,5.01,0.793,0.937,6.63,chromatographic logP [6]: 3.96
"CCCCC1C(=O)N(c2ccccc2)N(c2ccccc2)C1=O [Phenylbutazone, phenylbutazone]",,3.54,1.72,1.84,,,,"RMO ([7]; Nano-Sil CNF254 plates): 1.50; RMO [7, 11]: 2.71"
"CCOC(=O)C1=C(C)NC(C)=C(C(=O)OC)C1c1cccc(Cl)c1Cl (stereo not shown) [Felodipine, felodipine]",4.16,6.57,3.75,4.27,0.775,0.929,5.57,logPexp ([3]; ref 6): 3.86 [6]; logPexp ([3]; ref 41): 4.46 [41]
"Cc1cccc(Nc2ccccc2C(=O)O)c1C [Mefenamic Acid, mefenamic acid]",,3.74,2.61,2.49,0.789,0.865,,logPexp ([3]; ref 39): 5.12 [39]
"CC(C(=O)O)c1cccc(C(=O)c2ccccc2)c1 (stereo not shown) [Ketoprofen, ketoprofen]",,3.76,1.26,1.47,0.640,0.687,,"RMO ([7]; Nano-Sil CNF254 plates): 2.31; RMO [7, 11]: 1.74; Rm0 [2]: 1.8491; logP [2]: 2.66; log kwODS [5]: 2.83; log kw IAM [5]: 1.02"
"COc1ccc2c(c1)c(CC(=O)O)c(C)n2C(=O)c1ccc(Cl)cc1 [Indomethacin, indomethacin]",,4.08,2.57,2.19,0.747,0.790,,"RMO ([7]; Nano-Sil CNF254 plates): 0.52; RMO [7, 11]: 2.62; logPexp ([3]; ref 36): 4.27 [36]; logPexp ([3]; ref 42): 4.10 [42]"
